Read-outs that look alike come from different tables or passages of the source.
Legend:
[1] = tested on: human umbilical vein epithelial cells; conditions: of 10,000 genes probed; cited from earlier work
breast cancer cells = conditions: cited from earlier work
[2] = 1100 IU, 4-year period; cited from earlier work
injected tumors = conditions: mice with injected tumors; cited from earlier work
rhabdomyosarcoma cells = conditions: low dosage; cited from earlier work
[3] = 3500 IU per day; cited from earlier work
[4] = 2000 IU per day; cited from earlier work
[5] = tested on: expression of 20,341 genes in brain tissue; assay: Gene expression in brain tissue; type: in vivo, mice
[6] = tested on: genes involved in 220 biological processes; assay: Biochemical pathways / biological processes affected (Table 5); type: in vivo, mice
[7] = tested on: genes of the oxidative phosphorylation pathway (GO:0006119); assay: Cardiac gene expression array: oxidative phosphorylation genes; type: in vivo, mice; conditions: mouse cardiac tissue vs control

Compound: COc1cc(/C=C/C(=O)O)ccc1O [ferulic acid]
- genes with greater than 2-fold down-regulation [1]: 363 genes
- genes with greater than 2-fold up-regulation [1]: 233 genes

Compound: C=C1CC[C@H](O)C/C1=C/C=C1\CCC[C@]2(C)[C@@H]([C@H](C)CCCC(C)C)CC[C@@H]12 [vitamin D3, cholecalciferol]
- reduction of the number of breast cancer cells (breast cancer cells; higher concentrations of vitamin D3 alone, lab dish): about 25%
- reduction of the number of breast cancer cells (breast cancer cells; higher concentrations of vitamin D3 combined with resveratrol): 50%
- breast tumor cell growth (breast cancer cells; low-dose vitamin D3 alone): does not reduce breast tumor cell growth
- decline of tumor cell numbers (breast cancer cells; low-dose vitamin D3 combined with resveratrol): 40%
- reduction in cancer risk [2]: 60-77%

Compound: O=P(O)(O)OC1C(OP(=O)(O)O)C(OP(=O)(O)O)C(OP(=O)(O)O)C(OP(=O)(O)O)C1OP(=O)(O)O (centres unmarked) [IP6, (2,3,4,5,6-pentaphosphonooxycyclohexyl) dihydrogen phosphate]
- tumor size vs non-treated mice (injected tumors): 50 times smaller
- suppression of growth of rhabdomyosarcoma cells (rhabdomyosarcoma cells): 50%

Compound: vitamin D
- risk for breast cancer [3]: halved
- risk of colon cancer [4]: halved

Compound: Oc1ccc(/C=C/c2cc(O)cc(O)c2)cc1 [resveratrol, 3,4′,5-trihydroxy-trans-stilbene]
- number of genes exhibiting altered expression ([5]; animals receiving only this treatment, P<0.01): 424 genes
- number of genes exhibiting altered expression ([5]; resveratrol and calorie reduced diet): 10 genes
- Genes changed: Telomere Maintenance ([6]; GO: 0000723, 17 genes in series, P<0.05): 3
- Genes changed: Endochondral Ossification ([6]; GO: 0001958, 8 genes in series, P<0.05): 2
- Genes changed: Carbohydrate Metabolic Process ([6]; GO: 0005975, 316 genes in series, P<0.05): 21
- Genes changed: Polysaccharide Metabolic Process ([6]; GO: 0005976, 42 genes in series, P<0.05): 9
- Genes changed: Glycogen Metabolic Process ([6]; GO: 0005977, 31 genes in series, P<0.05): 7
- Genes changed: Generation Of Precursor Metabolites And Energy ([6]; GO: 0006091, 390 genes in series, P<0.05): 24
- Genes changed: Energy Reserve Metabolic Process ([6]; GO: 0006112, 35 genes in series, P<0.05): 7
- Genes changed: DNA Repair ([6]; GO: 0006281, 178 genes in series, P<0.05): 13
- Genes changed: Transcription Termination ([6]; GO: 0006353, 6 genes in series, P<0.05): 2
- Genes changed: Translation ([6]; GO: 0006412, 338 genes in series, P<0.05): 25
- Genes changed: Translational Initiation ([6]; GO: 0006413, 40 genes in series, P<0.05): 6
- Genes changed: Regulation Of Translational Initiation ([6]; GO: 0006446, 20 genes in series, P<0.05): 4
- Number of genes affected: Protein Folding ([6]; GO: 0006457, 124 genes in series, P<0.05): 13
- Genes changed: Ubiquitin-Dependent Protein Catabolic Process ([6]; GO: 0006511, 109 genes in series, P<0.05): 9
- Genes changed: Ubiquitin Cycle ([6]; GO: 0006512, 356 genes in series, P<0.05): 27
- Genes changed: Polyamine Biosynthetic Process ([6]; GO: 0006596, 5 genes in series, P<0.05): 2
- Genes changed: Protein Targeting ([6]; GO: 0006605, 161 genes in series, P<0.05): 12
- Genes changed: Protein Targeting To Peroxisome ([6]; GO: 0006625, 5 genes in series, P<0.05): 2
- Genes changed: Copper Ion Transport ([6]; GO: 0006825, 9 genes in series, P<0.05): 3
- Genes changed: Intracellular Protein Transport ([6]; GO: 0006886, 357 genes in series, P<0.05): 26
- Genes changed: ER To Golgi Vesicle-Mediated Transport ([6]; GO: 0006888, 16 genes in series, P<0.05): 3
- Genes changed: Caspase Activation ([6]; GO: 0006919, 16 genes in series, P<0.05): 3
- Genes changed: Response To DNA Damage Stimulus ([6]; GO: 0006974, 217 genes in series, P<0.05): 15
- Genes changed: ER Overload Response ([6]; GO: 0006983, 5 genes in series, P<0.05): 2
- Number of genes affected: Organelle Organization And Biogenesis ([6]; GO: 0006996, 897 genes in series, P<0.05): 53
- Number of genes affected: Cytoskeleton Organization And Biogenesis ([6]; GO: 0007010, 403 genes in series, P<0.05): 26
- Genes changed: Microtubule-Based Process ([6]; GO: 0007017, 155 genes in series, P<0.05): 12
- Number of genes affected: Microtubule-Based Movement ([6]; GO: 0007018, 72 genes in series, P<0.05): 9
- Genes changed: Mitotic Metaphase/Anaphase Transition ([6]; GO: 0007091, 8 genes in series, P<0.05): 2
- Genes changed: Female Meiosis ([6]; GO: 0007143, 8 genes in series, P<0.05): 2
- Genes changed: Transmembrane Receptor Protein Serine/Threonine Kinase Signaling Pathway ([6]; GO: 0007178, 75 genes in series, P<0.05): 7
- Genes changed: Small Gtpase Mediated Signal Transduction ([6]; GO: 0007264, 320 genes in series, P<0.05): 22
- Number of genes affected: Regulation Of Actin Polymerization And/Or Depolymerization ([6]; GO: 0008064, 30 genes in series, P<0.05): 4
- Genes changed: Protein Localization ([6]; GO: 0008104, 663 genes in series, P<0.05): 38
- Number of genes affected: Actin Polymerization And/Or Depolymerization ([6]; GO: 0008154, 39 genes in series, P<0.05): 6
- Genes changed: Isoprenoid Biosynthetic Process ([6]; GO: 0008299, 19 genes in series, P<0.05): 3
- Genes changed: RNA Splicing ([6]; GO: 0008380, 162 genes in series, P<0.05): 12
- Genes changed: Biosynthetic Process ([6]; GO: 0009058, 979 genes in series, P<0.05): 60
- Genes changed: Macromolecule Biosynthetic Process ([6]; GO: 0009059, 525 genes in series, P<0.05): 35
- Genes changed: Protein Transport ([6]; GO: 0015031, 581 genes in series, P<0.05): 38
- Genes changed: Modification-Dependent Protein Catabolic Process ([6]; GO: 0019941, 111 genes in series, P<0.05): 9
- Number of genes affected: Actin Filament Polymerization ([6]; GO: 0030041, 17 genes in series, P<0.05): 3
- Number of genes affected: Regulation Of Actin Filament Length ([6]; GO: 0030832, 31 genes in series, P<0.05): 4
- Genes changed: Cellular Response To Stress ([6]; GO: 0033554, 14 genes in series, P<0.05): 3
- Genes changed: Positive Regulation Of Enzyme Activity ([6]; GO: 0043085, 40 genes in series, P<0.05): 5
- Genes changed: Positive Regulation Of Caspase Activity ([6]; GO: 0043280, 17 genes in series, P<0.05): 3
- Genes changed: Regulation Of Caspase Activity ([6]; GO: 0043281, 27 genes in series, P<0.05): 5
- Genes changed: Cellular Biosynthetic Process ([6]; GO: 0044249, 710 genes in series, P<0.05): 45
- Genes changed: Cellular Carbohydrate Metabolic Process ([6]; GO: 0044262, 221 genes in series, P<0.05): 18
- Genes changed: Establishment Of Protein Localization ([6]; GO: 0045184, 610 genes in series, P<0.05): 38
- Genes changed: Interferon Type I Biosynthetic Process ([6]; GO: 0045351, 6 genes in series, P<0.05): 2
- Genes changed: Cell Redox Homeostasis ([6]; GO: 0045454, 40 genes in series, P<0.05): 6
- Genes changed: Regulation Of B Cell Differentiation ([6]; GO: 0045577, 8 genes in series, P<0.05): 2
- Genes changed: Positive Regulation Of JNK Cascade ([6]; GO: 0046330, 8 genes in series, P<0.05): 2
- Number of genes affected: Intracellular Transport ([6]; GO: 0046907, 523 genes in series, P<0.05): 43
- Genes changed: Golgi Vesicle Transport ([6]; GO: 0048193, 37 genes in series, P<0.05): 6
- Genes changed: Epithelial Cell Proliferation ([6]; GO: 0050673, 30 genes in series, P<0.05): 4
- Number of genes affected: Regulation Of Catalytic Activity ([6]; GO: 0050790, 241 genes in series, P<0.05): 21
- Genes changed: Barbed-End Actin Filament Capping ([6]; GO: 0051016, 17 genes in series, P<0.05): 3
- Number of genes affected: Protein Polymerization ([6]; GO: 0051258, 32 genes in series, P<0.05): 6
- Number of genes affected: Establishment Of Cellular Localization ([6]; GO: 0051649, 653 genes in series, P<0.05): 45
- biological processes with affected genes ([6]; resveratrol to calorie restricted mice): failed to affect any genes in any of these processes
- share of the 220 biological processes with affected genes ([6]; this treatment, P<0.05): 10%
- FC Cox4i2 [7]: 1.50
- FC Ndufaf1 [7]: −1.20
- FC Ndufc1 [7]: 1.20
- FC Ndufc2 [7]: −1.30
- FC Ndufs2 [7]: 1.10

Compound: O=c1c(O)c(-c2ccc(O)c(O)c2)oc2cc(O)cc(O)c12 [quercetin, 3,3′,4′,5,7-pentahydroxy-2-phenylchromen-4-one]
- genes with greater than 2-fold down-regulation [1]: 363 genes
- genes with greater than 2-fold up-regulation [1]: 233 genes
